This note sets out measurements from patent US20250051346A1 (priority 2021, published 2025).

Experiment [1] addresses T1, 5-HT2A (Homo sapiens, UniProt P28223). The experiment in a line: Serotonin 5-HT2A in vitro cellular IPOne agonism assay. The conditions noted are these: CHO-K1 cells, 60 min. Also on record: host or cells: CHO-K1. The format is cell-based. On the procedure:
Serotonin 5-HT2A In Vitro Cellular IPOne Agonism Assay. The 5-HT2A IPOne HTRF assay was performed at Epics Therapeutics S.A. (Belgium, FAST-0505I) using conventional methods. Briefly, CHO-K1 cells expressing human recombinant 5-HT2A receptor grown to mid-log phase in culture media without antibiotics were detached with PBS-EDTA, centrifuged, and resuspended in medium without antibiotics buffer. 20,000 cells are distributed in a 96 well plate and incubated overnight at 37° C. with 5% CO2.
For agonist testing, the medium was removed and 20 μl of assay buffer plus 20 μl of test compound or reference agonist were added in each well. The plate was incubated for 60 min. at 37° C. with 5% CO2.
After addition of the lysis buffer containing IP1-d2 and anti-IP1 cryptate detection reagents, plates were incubated 1-hour at room temperature, and fluorescence ratios were measured according to the manufacturer specification, with the HTRF kit.

Experiment [2] concerns the target T1, 5-HT2A. As to the kind of experiment: Serotonin 5-HT2A in vitro radioligand binding competition assay. Also noted: purchased Epics Therapeutics S.A. (Belgium), contract assay FAST-0505B; host or cells: membrane extracts. The conditions noted are these: [3H]-DOI radiotracer, membrane extracts, read-out: 5HT2A R[…] ACTIVITY
The protocol: Serotonin 5-HT2A In Vitro Radioligand Binding Competition Assay. The 5-HT2A radioligand binding competition assay was performed at Epics Therapeutics S.A. (Belgium, FAST-0505B) using conventional methods. Briefly, competition binding was performed in duplicate in the wells of a 96 well plate (Master Block, Greiner, 786201) containing binding buffer (optimized for each receptor), membrane extracts (amount of protein/well optimized for each receptor), radiotracer [^3H]-DOI (final concentration optimized for each receptor) and test compound. Nonspecific binding was determined by co-incubation with 200-fold excess of cold competitor. The samples were incubated in a final volume of 0.1 ml at a temperature and for a duration optimized for each receptor and then filtered over filter plates. Filters were washed six times with 0.5 ml of ice-cold washing buffer (optimized for each receptor) and 50 μl of Microscint 20 (Packard) were added in each well. The plates were incubated 15 min on an orbital shaker and then counted with a TopCount™ for 1 min/well.

Read-outs that look alike come from different tables or passages of the source.

T1 sequence (P28223 whole entry): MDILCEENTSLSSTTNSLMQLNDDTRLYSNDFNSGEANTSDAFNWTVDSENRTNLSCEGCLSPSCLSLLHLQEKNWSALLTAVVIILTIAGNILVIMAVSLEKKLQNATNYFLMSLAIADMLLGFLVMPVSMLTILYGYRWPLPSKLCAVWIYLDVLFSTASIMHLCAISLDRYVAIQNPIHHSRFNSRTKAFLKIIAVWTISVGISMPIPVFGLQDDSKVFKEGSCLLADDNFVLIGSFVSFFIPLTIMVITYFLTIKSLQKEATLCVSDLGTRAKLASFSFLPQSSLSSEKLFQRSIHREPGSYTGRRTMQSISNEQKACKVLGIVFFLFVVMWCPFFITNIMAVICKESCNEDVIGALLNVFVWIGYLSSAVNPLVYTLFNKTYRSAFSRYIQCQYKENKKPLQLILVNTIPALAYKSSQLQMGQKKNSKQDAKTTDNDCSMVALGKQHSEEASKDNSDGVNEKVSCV

At 5-HT2A [1] (benzofurans), `Fc1cccc2oc3c(c12)CN(C1CCC1)CCC3` [Compound 1, 2-cyclobutyl-10-fluoro-2,3,4,5-tetrahydro-1H-benzofuro[3,2-c]azepine] showed an EC50 of over 10 µM. For the same compound, the IC50 on 5-HT2A [2] (benzofurans) is over 10 µM.

The compound `Fc1cccc2oc3c(c12)CCN(C1CCC1)CC3` [Compound 2, 3-cyclobutyl-10-fluoro-2,3,4,5-tetrahydro-1H-benzofuro[2,3-d]azepine] came in with an EC50 at 5-HT2A [1] (benzofurans) of 1 to 10 µM. The IC50 at 5-HT2A [2] (benzofurans) was in the range of 1 to 10 µM.

In the case of `CN1CCc2oc3cccc(F)c3c2CC1` [Compound 3, 10-fluoro-3-methyl-2,3,4,5-tetrahydro-1H-benzofuro[2,3-d]azepine], the EC50 at 5-HT2A [1] (benzofurans) was in the range of 0.101 to 1 µM. The IC50 on 5-HT2A [2] (benzofurans) lay in the range of 0.101 to 1 µM.

On to `CN1CCCc2oc3cccc(F)c3c2C1` [Compound 4, 10-fluoro-2-methyl-2,3,4,5-tetrahydro-1H-benzofuro[3,2-c]azepine], for which, on 5-HT2A [1] (benzofurans), the EC50 is over 10 µM. The IC50 on 5-HT2A [2] (benzofurans) was 1 to 10 µM.

As for `Fc1cccc2oc3c(c12)CN(CC(F)(F)F)CCC3` [Compound 5, 10-fluoro-2-(2,2,2-trifluoroethyl)-2,3,4,5-tetrahydro-1H-benzofuro[3,2-c]azepine], on 5-HT2A [1] (benzofurans), the EC50 is over 10 µM. For the same compound, the IC50 on 5-HT2A [2] (benzofurans) is over 10 µM.

On to `Fc1ccc2c3c(oc2c1)CCCNC3` [Compound 6, 8-fluoro-2,3,4,5-tetrahydro-1H-benzofuro[3,2-c]azepine], for which the EC50 at 5-HT2A [1] (benzofurans) lay within 1 to 10 µM. At 5-HT2A [2] (benzofurans), the IC50 was over 10 µM.

Compound `Fc1cccc2oc3c(c12)CNCCC3` [Compound 7, 10-fluoro-2,3,4,5-tetrahydro-1H-benzofuro[3,2-c]azepine] came in with an EC50 on 5-HT2A [1] (benzofurans) of over 10 µM. Further, the IC50 on 5-HT2A [2] (benzofurans) is over 10 µM.

The compound `Fc1cccc2oc3c(c12)CCN(CC(F)(F)F)CC3` [Compound 8, 10-fluoro-3-(2,2,2-trifluoroethyl)-2,3,4,5-tetrahydro-1H-benzofuro[2,3-d]azepine] had an EC50 on 5-HT2A [1] (benzofurans) of 1 to 10 µM. Also, the IC50 at 5-HT2A [2] (benzofurans) was over 10 µM.

Take `CN1CCCc2oc3cc(F)ccc3c2C1` [Compound 9, 8-fluoro-2-methyl-2,3,4,5-tetrahydro-1H-benzofuro[3,2-c]azepine]: the EC50 on 5-HT2A [1] (benzofurans) lay in the range of 1 to 10 µM. For the same compound, the IC50 on 5-HT2A [2] (benzofurans) lay in the range of 1 to 10 µM.

Compound `Fc1cccc2oc3c(c12)CCNCC3` [Compound 10, 10-fluoro-2,3,4,5-tetrahydro-1H-benzofuro[2,3-d]azepine] yielded an EC50 at 5-HT2A [1] (benzofurans) of 0.101 to 1 µM. In addition, the IC50 at 5-HT2A [2] (benzofurans) lay within 0.101 to 1 µM.

Compound `COc1ccc2c3c(oc2c1)CCCN(CC(F)(F)F)C3` [Compound 11, 8-methoxy-2-(2,2,2-trifluoroethyl)-2,3,4,5-tetrahydro-1H-benzofuro[3,2-c]azepine] showed an EC50 at 5-HT2A [1] (benzofurans) of over 10 µM. Also, at 5-HT2A [2] (benzofurans), the IC50 is over 10 µM.

`COc1ccc2c3c(oc2c1)CCCN(C1CCC1)C3` [Compound 12, 2-cyclobutyl-8-methoxy-2,3,4,5-tetrahydro-1H-benzofuro[3,2-c]azepine] gave an EC50 at 5-HT2A [1] (benzofurans) of over 10 µM. On 5-HT2A [2] (benzofurans), the IC50 is over 10 µM.

On 5-HT2A [1] (benzofurans), `FC(F)(F)CN1CCCc2oc3ccccc3c2C1` [Compound 13, 2-(2,2,2-trifluoroethyl)-2,3,4,5-tetrahydro-1H-benzofuro[3,2-c]azepine] had an EC50 of over 10 µM. Further, the IC50 at 5-HT2A [2] (benzofurans) is over 10 µM.

On 5-HT2A [1] (benzofurans), `COc1cccc2oc3c(c12)CCN(C1CCC1)CC3` [Compound 15, 3-cyclobutyl-10-methoxy-2,3,4,5-tetrahydro-1H-benzofuro[2,3-d]azepine] showed an EC50 of 1 to 10 µM. For the same compound, the IC50 on 5-HT2A [2] (benzofurans) lay in the range of 1 to 10 µM.

As to `COc1cccc2oc3c(c12)CCNCC3` [Compound 16, 10-methoxy-2,3,4,5-tetrahydro-1H-benzofuro[2,3-d]azepine], the EC50 at 5-HT2A [1] (benzofurans) lay in the range of 0.01 to 0.1 µM. The IC50 at 5-HT2A [2] (benzofurans) lay in the range of 0.101 to 1 µM.

Compound `COc1ccc2c3c(oc2c1)CCCN(C)C3` [Compound 17, 8-methoxy-2-methyl-2,3,4,5-tetrahydro-1H-benzofuro[3,2-c]azepine] returned an EC50 at 5-HT2A [1] (benzofurans) of over 10 µM. Also, the IC50 at 5-HT2A [2] (benzofurans) is over 10 µM.

The compound `COc1cccc2oc3c(c12)CNCCC3` [Compound 18, 10-methoxy-2,3,4,5-tetrahydro-1H-benzofuro[3,2-c]azepine] registered an EC50 on 5-HT2A [1] (benzofurans) of 1 to 10 µM. Also, on 5-HT2A [2] (benzofurans), the IC50 is 1 to 10 µM.

`COc1ccc2c3c(oc2c1)CCCNC3` [Compound 19, 8-methoxy-2,3,4,5-tetrahydro-1H-benzofuro[3,2-c]azepine] registered an EC50 at 5-HT2A [1] (benzofurans) of over 10 µM. The IC50 on 5-HT2A [2] (benzofurans) is over 10 µM.

On 5-HT2A [1] (benzofurans), `c1ccc2c3c(oc2c1)CCCN(C1CCC1)C3` [Compound 20, 2-cyclobutyl-2,3,4,5-tetrahydro-1H-benzofuro[3,2-c]azepine] returned an EC50 of over 10 µM. Further, the IC50 on 5-HT2A [2] (benzofurans) is over 10 µM.

Compound `CN1CCCc2oc3ccccc3c2C1` [Compound 21, 2-methyl-2,3,4,5-tetrahydro-1H-benzofuro[3,2-c]azepine] returned an EC50 at 5-HT2A [1] (benzofurans) of over 10 µM. Besides, on 5-HT2A [2] (benzofurans), the IC50 is over 10 µM.

In turn, `c1ccc2c3c(oc2c1)CCCNC3` [Compound 22, 2,3,4,5-tetrahydro-1H-benzofuro[3,2-c]azepine] came in with an EC50 at 5-HT2A [1] (benzofurans) of over 10 µM. Moreover, the IC50 on 5-HT2A [2] (benzofurans) is over 10 µM.

Consider `Fc1ccc2c3c(oc2c1)CCNCC3` [Compound 24, 8-fluoro-2,3,4,5-tetrahydro-1H-benzofuro[2,3-d]azepine], for which, at 5-HT2A [1] (benzofurans), the EC50 lay in the range of 0.01 to 0.1 µM. For the same compound, on 5-HT2A [2] (benzofurans), the IC50 was in the range of 0.101 to 1 µM.

`COc1ccc2c3c(oc2c1)CCN(C1CCC1)CC3` [Compound 25, 3-cyclobutyl-8-methoxy-2,3,4,5-tetrahydro-1H-benzofuro[2,3-d]azepine] returned an EC50 on 5-HT2A [1] (benzofurans) of over 10 µM. At 5-HT2A [2] (benzofurans), the IC50 was over 10 µM.

In turn, `COc1ccc2c3c(oc2c1)CCN(C)CC3` [Compound 26, 8-methoxy-3-methyl-2,3,4,5-tetrahydro-1H-benzofuro[2,3-d]azepine] yielded an EC50 on 5-HT2A [1] (benzofurans) of over 10 µM. For the same compound, the IC50 at 5-HT2A [2] (benzofurans) was 1 to 10 µM.

In the case of `COc1ccc2c3c(oc2c1)CCNCC3` [Compound 27, 8-methoxy-2,3,4,5-tetrahydro-1H-benzofuro[2,3-d]azepine], the EC50 on 5-HT2A [1] (benzofurans) lay within 1 to 10 µM. At 5-HT2A [2] (benzofurans), the IC50 was in the range of 1 to 10 µM.

As for `FC(F)(F)CN1CCc2oc3ccccc3c2CC1` [Compound 29, 3-(2,2,2-trifluoroethyl)-2,3,4,5-tetrahydro-1H-benzofuro[2,3-d]azepine], the EC50 on 5-HT2A [1] (benzofurans) is over 10 µM. Also, the IC50 at 5-HT2A [2] (benzofurans) is over 10 µM.

In the case of `c1ccc2c3c(oc2c1)CCNCC3` [Compound 31, 2,3,4,5-tetrahydro-1H-benzofuro[2,3-d]azepine], the 50% effective concentration (EC50) at 5-HT2A [1] (benzofurans) was in the range of 0.101 to 1 µM. For the same compound, the IC50 at 5-HT2A [2] (benzofurans) lay in the range of 0.101 to 1 µM.

As for `COc1ccc2c3c(sc2c1)CCNCC3` [Compound 35, 8-methoxy-2,3,4,5-tetrahydro-1H-benzo[4,5]thieno[2,3-d]azepine], the EC50 on 5-HT2A [1] (benzothiophenes) is 0.101 to 1 µM. Besides, the IC50 at 5-HT2A [2] (benzothiophenes) lay within 1 to 10 µM.

Take `CN1CCc2oc3cc(C(F)(F)F)ccc3c2CC1` [Compound 39, 3-methyl-8-(trifluoromethyl)-2,3,4,5-tetrahydro-1H-benzofuro[2,3-d]azepine]: on 5-HT2A [1] (benzofurans), the EC50 was over 10 µM. On 5-HT2A [2] (benzofurans), the IC50 fell in the range of 1 to 10 µM.

`CN1CCc2oc3cc(OC(F)(F)F)ccc3c2CC1` [Compound 40, 3-methyl-8-(trifluoromethoxy)-2,3,4,5-tetrahydro-1H-benzofuro[2,3-d]azepine] returned an EC50 on 5-HT2A [1] (benzofurans) of over 10 µM. The IC50 on 5-HT2A [2] (benzofurans) lay in the range of 1 to 10 µM.

The compound `CN1CCc2oc3cc(OCc4ccccc4)ccc3c2CC1` [Compound 41, 8-(benzyloxy)-3-methyl-2,3,4,5-tetrahydro-1H-benzofuro[2,3-d]azepine] showed an EC50 on 5-HT2A [1] (benzofurans) of over 10 µM. For the same compound, the IC50 at 5-HT2A [2] (benzofurans) lay within 0.101 to 1 µM.

With `FC(F)(F)c1ccc2c3c(oc2c1)CCNCC3` [Compound 43, 8-(trifluoromethyl)-2,3,4,5-tetrahydro-1H-benzofuro[2,3-d]azepine], the EC50 on 5-HT2A [1] (benzofurans) was in the range of 0.101 to 1 µM. Also, on 5-HT2A [2] (benzofurans), the IC50 lay in the range of 1 to 10 µM.

`FC(F)(F)Oc1ccc2c3c(oc2c1)CCNCC3` [Compound 44, 8-(trifluoromethoxy)-2,3,4,5-tetrahydro-1H-benzofuro[2,3-d]azepine] registered an EC50 at 5-HT2A [1] (benzofurans) of 0.101 to 1 µM. Moreover, the IC50 at 5-HT2A [2] (benzofurans) was in the range of 1 to 10 µM.

Consider `c1ccc(COc2ccc3c4c(oc3c2)CCNCC4)cc1` [Compound 45, 8-(benzyloxy)-2,3,4,5-tetrahydro-1H-benzofuro[2,3-d]azepine], for which, on 5-HT2A [1] (benzofurans), the EC50 fell in the range of 1 to 10 µM. On 5-HT2A [2] (benzofurans), the IC50 lay within 1 to 10 µM.

For `Fc1ccc2c3c(sc2c1)CCNCC3` [Compound 46, 8-fluoro-2,3,4,5-tetrahydro-1H-benzo[4,5]thieno[2,3-d]azepine], the EC50 at 5-HT2A [1] (benzothiophenes) is under 0.01 µM. For the same compound, at 5-HT2A [2] (benzothiophenes), the IC50 was in the range of 0.01 to 0.1 µM.

With `FC(F)(F)c1ccc2c3c(oc2c1)CCCNC3` [Compound 48, 8-(trifluoromethyl)-2,3,4,5-tetrahydro-1H-benzofuro[3,2-c]azepine], the EC50 on 5-HT2A [1] (benzofurans) fell in the range of 1 to 10 µM. Further, at 5-HT2A [2] (benzofurans), the IC50 lay in the range of 1 to 10 µM.

As a reminder, the EC50 is the concentration needed to bring the measured effect to its halfway point.
